{
  "source": "patent US11827704B2",
  "about": "“Antibody molecules to PD-1 and uses thereof” (Novartis AG, priority 2014, dated 2023)",
  "molecules": {"B1": {"name": "BAP049: murine anti-PD-1 monoclonal antibody; sequences in Table 1 (antibody, V domains shown)", "VH": "QVQLQQSGSELVRPGASVKLSCKASGYTFTTYWMHWVRQRPGQGLEWIGNIYPGTGGSNFDEKFKNRTSLTVDTSSTTAYMHLASLTSEDSAVYYCTRWTTGTGAYWGQGTLVTVSA", "VL": "DIVMTQSPSSLTVTAGEKVTMSCKSSQSLLDSGNQKNFLTWYQQKPGQPPKLLIFWASTRESGVPDRFTGSGSVTDFTLTISSVQAEDLAVYYCQNDYSYPCTFGGGTKLEIK"}},
  "key": {"[1]": {"system": "PD-L1 (CD274) mRNA in Hs.746.T tumor", "test": "TaqMan RT PCR of PD-L1 mRNA in Hs.746.T tumor xenograft", "format": "in vivo, human", "conditions": "Hs.746.T tumor (gastric cancer cell with cMET amplification & mutation) xenograft; FIG. 16"}, "[2]": {"system": "PD-L1 (CD274) surface expression in EBC-1 cells", "test": "Flow cytometry of PD-L1 surface expression in EBC-1 cells in vitro", "format": "cell-based, human", "conditions": "EBC-1 cells (NSCLC with cMET amplification); 10 nM, 100 nM, 1000 nM for 24, 48 and 72 hours; FIG. 15", "method": "PD-L1 (CD274) expression was analyzed in cancer cell lines treated with Compound A17. Cells were obtained from ATCC and cultured in vitro following ATCC directions. The cell lines used were previously characterized by the Cancer Cell Line Encyclopedia Project (broadinstitute.org/ccle/home).\nCells plated in six-well culture plates were treated with the Compound A17 at different concentrations (10 nM, 100 nM, and 1000 nM) for 24, 48 and 72 hours. Equal amount of vehicle (DMSO) was used as a control. Cells were washed with PBS and then harvested using a cell scraper.\nFor each reaction, 0.5-1×10^6 cells were stained with 20 μL of anti-human monoclonal PD-L1-PE antibody, clone M1H1 (BD) for 30-60 minutes at 4° C. Cells were washed twice and data was acquired using a Canto II with FACSDiva software (BD Bioscience). Data analysis was performed using FlowJo software (Tree Star). Mean fluorescence intensity (MFI) was determined by gating on single cells. Unstained cells were used as a gating control."}, "[3]": {"system": "PD-L1 (CD274) mRNA in UKE-1 tumors", "test": "TaqMan RT PCR of PD-L1 mRNA in UKE-1 tumor xenograft model", "format": "in vivo, human", "conditions": "tumor xenograft model bearing UKE-1 (MPN line with JAK2V617F mutation); FIG. 20"}, "[4]": {"system": "PD-L1 (CD274) mRNA in H3122 cells", "test": "TaqMan RT PCR of PD-L1 mRNA in H3122 cells in vitro", "format": "cell-based, human", "conditions": "H3122 (NSCLC with ALK translocation) in vitro; FIG. 17", "method": "(§1) TaqMan RT PCR assays were developed to detect changes of expression levels of PD-L1 (CD274) in cell lines and xenograft tumors. mRNA was isolated from frozen cell pellets or tumor fragments using the Qiagen RNeasy Mini kit. Isolated RNA was frozen at −80° C. RNA quality was checked and RNA was quantified using a 2100 Agilent Bioanalyzer following the protocol for the Agilent RNA 6000 Nano Kit. cDNA was prepared using a High Capacity RNA- to cDNA Kit (Applied Biosystems).\n(§2) Real-time PCR reactions were carried out in 20 μl total volume, including 10 μl of Universal PCR master mix (Applied Biosystems), 1 μl of human PD-L1 (CD274) probe/primer set (Applied Biosystems), and 8 μl of cDNA. Each sample was run in triplicate. The amount of cDNA produced from 25-50 ng of RNA in the reverse transcription reaction was used in each PCR reaction. Due to difference in mRNA levels between PD-L1 and GAPDH, the two real-time PCR reactions were done in separate tubes using same amount of cDNA. The real-time PCR reaction was run on the C1000 Thermal Cycle (BioRad) with the cycle program as follows: a 10 minute incubation at 95° C. followed by 40 cycles of 95° C. for 15 seconds and 60° C. for 1 minute. After the reaction was complete, the PD-L1 average Ct was normalized relative to each Ct value from the GAPDH reference reaction. Each normalized logarithmic value was then converted into a linear value."}, "[5]": {"system": "PD-L1 (CD274) mRNA in LOXIMV1 tumors", "test": "TaqMan RT PCR of PD-L1 mRNA in LOXIMV1 tumor xenograft model", "format": "in vivo, human", "conditions": "tumor xenograft model bearing LOXIMV1 (BRAF mutant melanoma); FIG. 18", "method": "as §1, §2"}, "[6]": {"system": "PD-L1 (CD274) mRNA in HEYA8 tumors", "test": "TaqMan RT PCR of PD-L1 mRNA in HEYA8 tumor xenograft model", "format": "in vivo, human", "conditions": "tumor xenograft model bearing HEYA8 (KRAS mutant ovarian cancer); FIG. 19", "method": "as §1, §2"}, "[7]": {"system": "CD8^+ T cells", "test": "Proliferation of CD8+ T cells activated with CMV peptides", "format": "cell-based", "conditions": "percentages of CD8+ cells that passed through at least n cell divisions (n=2, 4, 6)"}, "[8]": {"system": "IFN-γ expression", "format": "cell-based"}},
  "note": "Where two headings read alike, the source gives them in different places.",
  "data": [
    {"molecule": "CNC(=O)c1ccc(-c2cnc3ncc(Cc4ccc5ncccc5c4)n3n2)cc1F", "note": "[Compound A17, 2-fluoro-N-methyl-4-(7-(quinolin-6-ylmethyl)imidazo[1,2-b][1,2,4]triazin-2-yl)benzamide]", "values": [
      {"measurement": "PD-L1 expression (mRNA)", "setting": "[1]", "result": "Inhibition"},
      {"measurement": "surface expression of PD-L1 (flow cytometry)", "setting": "[2]", "result": "significant downregulation"}
    ]},
    {"molecule": "N#CC[C@H](C1CCCC1)n1cc(-c2ncnc3[nH]ccc23)cn1", "note": "[Compound A18, Ruxolitinib Phosphate]", "values": [
      {"measurement": "PD-L1 mRNA", "setting": "[3]", "result": "Downregulation"}
    ]},
    {"molecule": "Cc1cc(Nc2ncc(Cl)c(Nc3ccccc3S(=O)(=O)C(C)C)n2)c(OC(C)C)cc1C1CCNCC1", "note": "[Compound A23, ceritinib]", "values": [
      {"measurement": "PD-L1 mRNA", "setting": "[4]", "result": "Inhibition"}
    ]},
    {"molecule": "COC(=O)N[C@@H](C)CNc1nccc(-c2cn(C(C)C)nc2-c2cc(Cl)cc(NS(C)(=O)=O)c2F)n1", "note": "[Compound A29, Encorafenib]", "values": [
      {"measurement": "PD-L1 mRNA", "setting": "[5]", "result": "Downregulation"}
    ]},
    {"molecule": "Cn1cnc2c(F)c(Nc3ccc(Br)cc3F)c(C(=O)NOCCO)cc21", "note": "[Compound A34, Binimetinib]", "values": [
      {"measurement": "PD-L1 mRNA", "setting": "[6]", "result": "Downregulation"}
    ]},
    {"molecule": "B1", "values": [
      {"measurement": "proliferation of CD8+ T cells activated with CMV peptides", "setting": "[7]", "result": "increase proliferation"},
      {"measurement": "fold increase in IFN-γ expression", "setting": "[8]", "result": "2.8±0.8", "unit": "fold"},
      {"measurement": "fold increase in IFN-γ expression", "setting": "[8]; cells stimulated with Staphylococcal enterotoxin B (SEB) (3 μg/mL)", "result": "2.5±2.0", "unit": "fold"}
    ]}
  ]
}
